Paper PMC9316317, “Reducing the Kidney Uptake of High Contrast CXCR4 PET Imaging Agents via Linker Modifications” (Pharmaceutics, 2022)
Where a SMILES comes first, the peptide text is derived from it. Side-chain parts run from the residue outwards. [ ]: non-standard residue; d: D form. The star is where a group is joined. DOTA = O=C(O)CN1CCN(CC(=O)O)CCN(CC(=O)*)CCN(CC(=O)O)CC1; 2Nal = N[C@@H](Cc1ccc2ccccc2c1)C(=O)O; dNMeOrn = CN[C@H](CCCN)C(=O)O; 4Amb = NCc1ccc(C(=O)O)cc1

Legend:
[1] = Ex vivo biodistribution in Daudi xenograft-bearing mice; settings: male, NOD.Cg-Rag1tm1Mom Il2rgtm1Wjl/SzJ (NRG), mouse, iv, total radioactivity; for tissue uptake at 2 h: 2 h p.i.
Procedure: (§1) Male NOD.Cg-Rag1tm1Mom Il2rgtm1Wjl/SzJ (NRG) mice were obtained from an in-house breeding colony at the Animal Resource Centre of the BC Cancer Research Centre, Vancouver, Canada. Mice (6–10 weeks old, 25–30 g weight) were subcutaneously inoculated with 5 × 10^6 Daudi cells (100 μL; 1:1 ratio of PBS/Matrigel) on the left flank.
(§2) Additional groups of mice received 7.5 µg (0.25–0.3 mg/kg) LY2510924 as a blocking control i.p. 15 min before radiotracer injection, and euthanized 1 h p.i. Tissues were harvested, washed in PBS, blotted dry, and weighed, and radioactivity was counted on a Hidex AMG Automatic Gamma Counter. The counts were decay corrected, converted to absolute units using a calibration curve, and expressed as percent injected dose per gram of tissue (%ID/g).

[2] = system: CXCR4-expressing Daudi xenograft mice; assay: as above
Procedure: as §1, §2

[3] = 1 h p.i. blocked with LY2510924, mean

Question: With CN1C(=O)[C@@H](Cc2ccc(O)cc2)NC(=O)CNC(=O)[C@H](Cc2ccc3ccccc3c2)NC(=O)[C@H](CCCNC(=N)N)NC(=O)[C@H]1CCCNC(=O)c1ccc(CNC(=O)CN2CCN(CC(=O)O)CCN(CC(=O)O)CCN(CC(=O)O)CC2)cc1 [[68Ga]Ga-Pentixafor, metal not drawn] (cyclo([dY][dNMeOrn]([4Amb-DOTA])R[2Nal]G)) as the molecule, how does the tissue uptake at 1 h ([1]; adrenals, Adrenals uptake, 1 h p.i. blocked with LY2510924, mean) read?
Answer: The tissue uptake at 1 h was 0.38 %ID/g.

Question: What about the tissue uptake at 1 h ([1]; adrenals, Adrenals uptake, 1 h p.i., mean) of the same molecule?
Answer: Its tissue uptake at 1 h is 0.34 %ID/g.

Question: What about the tissue uptake at 2 h ([1]; adrenals, Adrenals uptake, mean) of the same molecule?
Answer: Its tissue uptake at 2 h is 0.18 %ID/g.

Question: And the tissue uptake at 1 h ([1]; blood, Blood uptake, 1 h p.i. blocked (7.5 µg LY2510924 i.p. 15 min before tracer), mean)?
Answer: The tissue uptake at 1 h was 1.23 %ID/g.

Question: And the tissue uptake at 2 h ([1]; blood, Blood uptake, mean)?
Answer: The tissue uptake at 2 h was 0.28 ± 0.04 %ID/g.

Question: And the tissue uptake at 1 h ([1]; bone, Bone uptake, 1 h p.i. blocked with LY2510924, mean)?
Answer: Its tissue uptake at 1 h is 0.27 %ID/g.

Question: What about the tissue uptake at 1 h ([1]; bone, Bone uptake, 1 h p.i., mean) of the same molecule?
Answer: The tissue uptake at 1 h was 0.18 %ID/g.

Question: And the tissue uptake at 2 h ([1]; bone, Bone uptake, mean)?
Answer: Its tissue uptake at 2 h is 0.14 %ID/g.

Question: What about the tissue uptake at 1 h ([1]; brain, Brain uptake, 1 h p.i. blocked with LY2510924, mean) of the same molecule?
Answer: Its tissue uptake at 1 h is 0.03 %ID/g.

Question: What about the tissue uptake at 1 h ([1]; brain, Brain uptake, 1 h p.i., mean) of the same molecule?
Answer: Its tissue uptake at 1 h is 0.03 %ID/g.

Question: What about the tissue uptake at 2 h ([1]; brain, Brain uptake, mean) of the same molecule?
Answer: The tissue uptake at 2 h was 0.01 %ID/g.

Question: What about the tissue uptake at 1 h ([1]; fat, Fat uptake, 1 h p.i. blocked with LY2510924, mean) of the same molecule?
Answer: Its tissue uptake at 1 h is 0.18 %ID/g.

Question: And the tissue uptake at 1 h ([1]; fat, Fat uptake, 1 h p.i., mean)?
Answer: Its tissue uptake at 1 h is 0.08 %ID/g.

Question: And the tissue uptake at 2 h ([1]; fat, Fat uptake, mean)?
Answer: The tissue uptake at 2 h was 0.04 %ID/g.

Question: What about the tissue uptake at 1 h ([1]; heart, Heart uptake, 1 h p.i. blocked with LY2510924, mean) of the same molecule?
Answer: Its tissue uptake at 1 h is 0.47 %ID/g.

Question: And the tissue uptake at 1 h ([1]; heart, Heart uptake, 1 h p.i., mean)?
Answer: The tissue uptake at 1 h was 0.36 %ID/g.

Question: And the tissue uptake at 2 h ([1]; heart, Heart uptake, mean)?
Answer: Its tissue uptake at 2 h is 0.13 %ID/g.

Question: What about the tissue uptake at 1 h ([1]; intestine, Intestine uptake, 1 h p.i. blocked with LY2510924, mean) of the same molecule?
Answer: Its tissue uptake at 1 h is 0.59 %ID/g.

Question: And the tissue uptake at 2 h ([1]; intestine, Intestine uptake, mean)?
Answer: Its tissue uptake at 2 h is 0.2 %ID/g.

Question: And the tissue uptake at 1 h ([1]; kidney, Kidney uptake, 1 h p.i. blocked with LY2510924, mean)?
Answer: Its tissue uptake at 1 h is 3.16 %ID/g.

Question: What about the tissue uptake at 1 h ([1]; kidney, Kidney uptake, 1 h p.i., mean) of the same molecule?
Answer: Its tissue uptake at 1 h is 2.78 %ID/g.

Question: And the tissue uptake at 2 h ([1]; kidney, Kidney uptake, mean)?
Answer: The tissue uptake at 2 h was 1.76 ± 0.38 %ID/g.

Question: And the tissue uptake at 1 h ([1]; liver, Liver uptake, 1 h p.i. blocked with LY2510924, mean)?
Answer: The tissue uptake at 1 h was 1.25 %ID/g.

Question: What about the tissue uptake at 1 h ([1]; liver, Liver uptake, 1 h p.i., mean) of the same molecule?
Answer: Its tissue uptake at 1 h is 1.23 ± 0.15 %ID/g.

Question: And the tissue uptake at 2 h ([1]; liver, Liver uptake, mean)?
Answer: Its tissue uptake at 2 h is 0.89 ± 0.12 %ID/g.

Question: And the tissue uptake at 1 h ([1]; lung, Lung uptake, 1 h p.i. blocked with LY2510924, mean)?
Answer: The tissue uptake at 1 h was 1.39 %ID/g.

Question: What about the tissue uptake at 1 h ([1]; lung, Lung uptake, 1 h p.i., mean) of the same molecule?
Answer: The tissue uptake at 1 h was 1.16 ± 0.14 %ID/g.

Question: What about the tissue uptake at 2 h ([1]; lung, Lung uptake, mean) of the same molecule?
Answer: The tissue uptake at 2 h was 0.54 ± 0.08 %ID/g.

Question: What about the tissue uptake at 1 h ([1]; muscle, Muscle uptake, 1 h p.i. blocked with LY2510924, mean) of the same molecule?
Answer: The tissue uptake at 1 h was 0.26 %ID/g.

Question: What about the tissue uptake at 1 h ([1]; muscle, Muscle uptake, 1 h p.i., mean) of the same molecule?
Answer: Its tissue uptake at 1 h is 0.2 %ID/g.

Question: And the tissue uptake at 2 h ([1]; muscle, Muscle uptake, mean)?
Answer: The tissue uptake at 2 h was 0.06 ± 0.02 %ID/g.

Question: What about the tissue uptake at 1 h ([1]; pancreas, Pancreas uptake, 1 h p.i. blocked with LY2510924, mean) of the same molecule?
Answer: Its tissue uptake at 1 h is 0.25 %ID/g.

Question: What about the tissue uptake at 1 h ([1]; pancreas, Pancreas uptake, 1 h p.i., mean) of the same molecule?
Answer: Its tissue uptake at 1 h is 0.21 %ID/g.

Question: What about the tissue uptake at 2 h ([1]; pancreas, Pancreas uptake, mean) of the same molecule?
Answer: Its tissue uptake at 2 h is 0.08 %ID/g.

Question: And the tissue uptake at 1 h ([1]; spleen, Spleen uptake, 1 h p.i. blocked with LY2510924, mean)?
Answer: The tissue uptake at 1 h was 0.59 %ID/g.

Question: And the tissue uptake at 1 h ([1]; spleen, Spleen uptake, 1 h p.i., mean)?
Answer: Its tissue uptake at 1 h is 0.63 %ID/g.

Question: What about the tissue uptake at 2 h ([1]; spleen, Spleen uptake, mean) of the same molecule?
Answer: The tissue uptake at 2 h was 0.33 %ID/g.

Question: And the tissue uptake at 1 h ([1]; stomach, Stomach uptake, 1 h p.i. blocked with LY2510924, mean)?
Answer: The tissue uptake at 1 h was 0.17 %ID/g.

Question: What about the tissue uptake at 1 h ([1]; stomach, Stomach uptake, 1 h p.i., mean) of the same molecule?
Answer: Its tissue uptake at 1 h is 0.13 %ID/g.

Question: And the tissue uptake at 2 h ([1]; stomach, Stomach uptake, mean)?
Answer: The tissue uptake at 2 h was 0.05 %ID/g.

Question: What about the tissue uptake at 1 h ([1]; testes, Testes uptake, 1 h p.i. blocked with LY2510924, mean) of the same molecule?
Answer: The tissue uptake at 1 h was 0.55 %ID/g.

Question: What about the tissue uptake at 1 h ([1]; testes, Testes uptake, 1 h p.i., mean) of the same molecule?
Answer: The tissue uptake at 1 h was 0.39 %ID/g.

Question: What about the tissue uptake at 2 h ([1]; testes, Testes uptake, mean) of the same molecule?
Answer: Its tissue uptake at 2 h is 0.13 %ID/g.

Question: What about the tissue uptake at 1 h ([1]; tumor (Daudi xenograft), Tumor uptake (Daudi xenograft), 1 h p.i. blocked with LY2510924, mean) of the same molecule?
Answer: Its tissue uptake at 1 h is 0.61 %ID/g.

Question: What about the tissue uptake at 1 h ([1]; tumor (Daudi xenograft), Tumor uptake (Daudi xenograft), 1 h p.i., mean) of the same molecule?
Answer: Its tissue uptake at 1 h is 6.31 ± 1.02 %ID/g.

Question: And the tissue uptake at 2 h ([1]; tumor (Daudi xenograft), Tumor uptake (Daudi xenograft), mean)?
Answer: The tissue uptake at 2 h was 5.23 %ID/g.

Question: And the “Tumor:Blood ratio” value [2, 3]?
Answer: The value was 0.53.

Question: And the “Tumor:Bone ratio” value [2, 3]?
Answer: The value was 2.67.

Question: What about the “Tumor:Liver ratio” value [2, 3] of the same molecule?
Answer: The value was 0.50.

Question: And the “Tumor:Lung ratio” value [2, 3]?
Answer: Its value is 0.47.

Question: And the “Tumor:Muscle ratio” value [2, 3]?
Answer: The value was 2.55.

Question: And the “Tumor:Spleen ratio” value [2, 3]?
Answer: The value was 1.14.

Question: What about the “Tumor:Blood ratio” value ([2]; 1 h p.i., mean) of the same molecule?
Answer: Its value is 6.53.

Question: And the “Tumor:Bone ratio” value ([2]; 1 h p.i., mean)?
Answer: The value was 35.99.

Question: What about the “Tumor:Kidney ratio” value ([2]; 1 h p.i., mean) of the same molecule?
Answer: Its value is 2.29 ± 0.38.

Question: And the “Tumor:Liver ratio” value ([2]; 1 h p.i., mean)?
Answer: Its value is 5.14.

Question: What about the “Tumor:Lung ratio” value ([2]; 1 h p.i., mean) of the same molecule?
Answer: Its value is 5.48.

Question: And the “Tumor:Muscle ratio” value ([2]; 1 h p.i., mean)?
Answer: Its value is 33.25.

Question: What about the “Tumor:Spleen ratio” value ([2]; 1 h p.i., mean) of the same molecule?
Answer: Its value is 10.20.

Question: What about the “Tumor:Blood ratio” value ([2]; 2 h p.i., mean) of the same molecule?
Answer: Its value is 18.94.

Question: And the “Tumor:Bone ratio” value ([2]; 2 h p.i., mean)?
Answer: Its value is 43.48.

Question: What about the “Tumor:Kidney ratio” value ([2]; 2 h p.i., mean) of the same molecule?
Answer: The value was 3.07 ± 0.54.

Question: What about the “Tumor:Liver ratio” value ([2]; 2 h p.i., mean) of the same molecule?
Answer: The value was 5.93.

Question: What about the “Tumor:Lung ratio” value ([2]; 2 h p.i., mean) of the same molecule?
Answer: The value was 9.95.

Question: What about the “Tumor:Muscle ratio” value ([2]; 2 h p.i., mean) of the same molecule?
Answer: Its value is 95.44.

Question: What about the “Tumor:Spleen ratio” value ([2]; 2 h p.i., mean) of the same molecule?
Answer: Its value is 16.57.
